Data published in the supplement of paper PMC9663587.

What was measured:
[1] = compound: C1=CC2=C(C=CC(=C2)C=C3C(=O)NC(=NCC4=CC=CS4)S3)N=C1 [R0-3306]
[2] = compound: CC(=O)O[C@H]1C(=O)[C@@]2(C)[C@H]([C@H](OC(=O)c3ccccc3)[C@]3(O)C[C@H](OC(=O)[C@H](O)[C@@H](NC(=O)c4ccccc4)c4ccccc4)C(C)=C1C3(C)C)[C@]1(OC(C)=O)CO[C@@H]1C[C@@H]2O [Paclitaxel]
[3] = compound: T1, CC(=O)c1c(C)c2cnc(Nc3ccc(N4CCN(CCOCCOCCOCCNC(=O)COc5cccc6c5C(=O)N(C5CCC(=O)NC5=O)C6=O)CC4)cn3)nc2n(C2CCCC2)c1=O [BSJ-03-123]
[4] = compound: CC(C)Nc1cc(-c2c[nH]c(C(=O)N[C@H](CO)c3cccc(Cl)c3)c2)c(Cl)cn1 [BVD523]
[5] = compound: CCC1=CN=CN=C1N2CCN(CC2)CC3=NC4=C(N3)C=C(C=C4)C(F)(F)F
[6] = compound: CCOc1cc2ncc(C#N)c(Nc3ccc(OCc4ccccn4)c(Cl)c3)c2cc1NC(=O)/C=C/CN(C)C [Neratinib/HKI272]
[7] = compound: T2, CN1CC[C@H](c2c(O)cc(O)c3c(=O)cc(-c4ccccc4Cl)oc23)[C@H](O)C1 [Flavopiridol]
[8] = compound: CO[C@@H](C)Cn1c(=O)n(C)c2cnc3ccc(-c4cncc(C(C)(C)O)c4)cc3c21
[9] = compound: NC1(C(=O)N[C@@H](CCO)c2ccc(Cl)cc2)CCN(c2nc[nH]c3nccc2-3)CC1 [AZD5363]
[10] = compound: C=CC(=O)Nc1ccc(C(=O)Nc2[nH]nc3c2CN(C(=O)N[C@H](CN(C)C)c2ccccc2)C3(C)C)cc1 [YKL-5-124]; experiment: GR value, 72 h; higher = faster growth (1 = untreated, <0 = killing);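 note: breast cancer and non-malignant breast epithelial lines, nine half-log doses, viable cells counted by Hoechst and LIVE/DEAD dye imaging versus time-zero plates and DMSO controls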
[11] = compound: T1, BSJ-03-123; experiment: as above
[12] = compound: CCN1CCN(Cc2ccc(Nc3ncc(F)c(-c4cc(F)c5nc(C)n(C(C)C)c5c4)n3)nc2)CC1; experiment: as above
[13] = compound: CCc1cnn2c(NCc3ccc[n+]([O-])c3)cc(N3CCCC[C@H]3CCO)nc12; experiment: as above
[14] = compound: CN(C)C(=O)c1cc2cnc(Nc3ccc(N4CCNCC4)cn3)nc2n1C1CCCC1 [LEE011/Ribociclib]; experiment: as above
[15] = compound: CN(C)C/C=C/C(=O)Nc1ccc(C(=O)N2CCC[C@@H](Nc3ncc(Cl)c(-c4c[nH]c5ccccc45)n3)C2)cc1 [THZ531]; experiment: as above
[16] = compound: CN(C)C/C=C/C(=O)Nc1ccc(C(=O)Nc2cccc(Nc3ncc(Cl)c(-c4c[nH]c5ccccc45)n3)c2)cc1 [THZ1]; experiment: as above
[17] = compound: T2, Flavopiridol; experiment: as above
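Throughout, for GR50, 72 h: breast cancer and non-malignant breast epithelial cell lines, Deep Dye Drop or Dye Drop imaging, nine half-log doses, GR normalized to time-zero plates and DMSO-only controls.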

With MDAMB330 the “GR50, 72 h” value [1] was 7.54 µM, the “GR50, 72 h” value [2] was 0.00423 µM and the “GR50, 72 h” value [3] was 0.297 µM. The “GR50, 72 h” value [4] was 7.45 µM, the “GR50, 72 h” value [5] was over 10 µM and the “GR50, 72 h” value [6] was 0.00221 µM. For the same cell line, the “GR50, 72 h” value [7] was 0.232 µM, the “GR50, 72 h” value [8] was under 0.001 µM and the “GR50, 72 h” value [9] was 0.198 µM. For the same cell line, the GR value ([10]; 0.001 µM) was 0.265 GR, the GR value ([10]; 0.003162 µM) was 0.245 GR and the GR value ([10]; 0.01 µM) was 0.149 GR. For the same cell line, the GR value ([10]; 0.03162 µM) was 0.177 GR, the GR value ([10]; 0.1 µM) was 0.133 GR and the GR value ([10]; 0.3162 µM) was -0.0197 GR. For the same cell line, the GR value ([10]; 1 µM) was 0.0836 GR, the GR value ([10]; 3.162 µM) was 0.0626 GR and the GR value ([10]; 10 µM) was -0.732 GR. It also gave a GR value ([11]; 0.001 µM) of 0.928 GR, a GR value ([11]; 0.003162 µM) of 0.827 GR and a GR value ([11]; 0.01 µM) of 0.847 GR. For the same cell line, the GR value ([11]; 0.03162 µM) was 0.727 GR, the GR value ([11]; 0.1 µM) was 0.637 GR and the GR value ([11]; 0.3162 µM) was 0.403 GR. The GR value ([11]; 1 µM) was 0.337 GR, the GR value ([11]; 3.162 µM) was 0.277 GR and the GR value ([11]; 10 µM) was -0.101 GR. For the same cell line, the GR value ([12]; 0.001 µM) was 0.797 GR, the GR value ([12]; 0.003162 µM) was 0.615 GR and the GR value ([12]; 0.01 µM) was 0.306 GR. It also gave a GR value ([12]; 0.03162 µM) of 0.178 GR, a GR value ([12]; 0.1 µM) of 0.197 GR and a GR value ([12]; 0.3162 µM) of 0.241 GR. For the same cell line, the GR value ([12]; 1 µM) was 0.202 GR, the GR value ([12]; 3.162 µM) was 0.199 GR and the GR value ([12]; 10 µM) was -0.0587 GR. It also gave a GR value ([13]; 0.0001 µM) of 1.02 GR, a GR value ([13]; 0.0003162 µM) of 1.09 GR and a GR value ([13]; 0.001 µM) of 1.09 GR. For the same cell line, the GR value ([13]; 0.003162 µM) was 1.08 GR, the GR value ([13]; 0.01 µM) was 1.02 GR and the GR value ([13]; 0.03162 µM) was -0.513 GR. The GR value ([14]; 0.001 µM) was 0.451 GR, the GR value ([14]; 0.003162 µM) was 0.229 GR and the GR value ([14]; 0.01 µM) was 0.361 GR. The GR value ([14]; 0.03162 µM) was 0.14 GR, the GR value ([14]; 0.1 µM) was 0.106 GR and the GR value ([14]; 0.3162 µM) was -0.116 GR. The GR value ([14]; 1 µM) was 0.15 GR, the GR value ([14]; 3.162 µM) was 0.292 GR and the GR value ([14]; 10 µM) was 0.293 GR. It also gave a GR value ([15]; 0.0001 µM) of 1.12 GR, a GR value ([15]; 0.0003162 µM) of 0.83 GR and a GR value ([15]; 0.001 µM) of 0.891 GR. For the same cell line, the GR value ([15]; 0.003162 µM) was 0.971 GR, the GR value ([15]; 0.01 µM) was 0.805 GR and the GR value ([15]; 0.03162 µM) was 0.214 GR. It also gave a GR value ([15]; 0.1 µM) of -0.965 GR, a GR value ([15]; 0.3162 µM) of -0.962 GR and a GR value ([15]; 1 µM) of -0.968 GR. The GR value ([16]; 0.0001 µM) was 1.19 GR, the GR value ([16]; 0.0003162 µM) was 0.925 GR and the GR value ([16]; 0.001 µM) was 1.1 GR. It also gave a GR value ([16]; 0.003162 µM) of 0.734 GR, a GR value ([16]; 0.01 µM) of 0.455 GR and a GR value ([16]; 0.03162 µM) of -0.545 GR. For the same cell line, the GR value ([16]; 0.1 µM) was -0.924 GR, the GR value ([16]; 0.3162 µM) was -0.898 GR and the GR value ([16]; 1 µM) was -0.945 GR. The GR value ([17]; 0.0001 µM) was 0.986 GR, the GR value ([17]; 0.0003162 µM) was 0.935 GR and the GR value ([17]; 0.001 µM) was 1.03 GR. It also gave a GR value ([17]; 0.003162 µM) of 1.01 GR, a GR value ([17]; 0.01 µM) of 0.911 GR and a GR value ([17]; 0.03162 µM) of 0.85 GR. It also gave a GR value ([17]; 0.1 µM) of 0.735 GR, a GR value ([17]; 0.3162 µM) of 0.285 GR and a GR value ([17]; 1 µM) of -0.892 GR.

For EFM19, the “GR50, 72 h” value [1] was 6.14 µM, the “GR50, 72 h” value [2] was 0.00438 µM and the “GR50, 72 h” value [3] was 1.23 µM. The “GR50, 72 h” value [4] was over 10 µM, the “GR50, 72 h” value [5] was over 10 µM and the “GR50, 72 h” value [6] was over 3.16 µM. The “GR50, 72 h” value [7] was 0.284 µM, the “GR50, 72 h” value [8] was 0.00381 µM and the “GR50, 72 h” value [9] was 1.63 µM. It also gave a GR value ([10]; 0.001 µM) of 0.518 GR, a GR value ([10]; 0.003162 µM) of 0.329 GR and a GR value ([10]; 0.01 µM) of 0.259 GR. It also gave a GR value ([10]; 0.03162 µM) of 0.219 GR, a GR value ([10]; 0.1 µM) of 0.134 GR and a GR value ([10]; 0.3162 µM) of 0.178 GR. It also gave a GR value ([10]; 1 µM) of 0.106 GR, a GR value ([10]; 3.162 µM) of 0.149 GR and a GR value ([10]; 10 µM) of 0.0614 GR. It also gave a GR value ([11]; 0.001 µM) of 0.951 GR, a GR value ([11]; 0.003162 µM) of 0.918 GR and a GR value ([11]; 0.01 µM) of 0.806 GR. It also gave a GR value ([11]; 0.03162 µM) of 0.733 GR, a GR value ([11]; 0.1 µM) of 0.717 GR and a GR value ([11]; 0.3162 µM) of 0.654 GR. The GR value ([11]; 1 µM) was 0.48 GR, the GR value ([11]; 3.162 µM) was 0.447 GR and the GR value ([11]; 10 µM) was 0.117 GR. It also gave a GR value ([12]; 0.001 µM) of 0.984 GR, a GR value ([12]; 0.003162 µM) of 0.967 GR and a GR value ([12]; 0.01 µM) of 0.802 GR. The GR value ([12]; 0.03162 µM) was 0.442 GR, the GR value ([12]; 0.1 µM) was 0.359 GR and the GR value ([12]; 0.3162 µM) was 0.337 GR. For the same cell line, the GR value ([12]; 1 µM) was 0.327 GR, the GR value ([12]; 3.162 µM) was 0.359 GR and the GR value ([12]; 10 µM) was 0.269 GR. The GR value ([13]; 0.0001 µM) was 1.1 GR, the GR value ([13]; 0.0003162 µM) was 1.09 GR and the GR value ([13]; 0.001 µM) was 1.15 GR. The GR value ([13]; 0.003162 µM) was 1.15 GR, the GR value ([13]; 0.01 µM) was 1.05 GR and the GR value ([13]; 0.03162 µM) was 0.509 GR. For the same cell line, the GR value ([13]; 0.1 µM) was -0.295 GR, the GR value ([13]; 0.3162 µM) was -0.448 GR and the GR value ([13]; 1 µM) was -0.534 GR. For the same cell line, the GR value ([14]; 0.001 µM) was 0.892 GR, the GR value ([14]; 0.003162 µM) was 0.802 GR and the GR value ([14]; 0.01 µM) was 0.825 GR. The GR value ([14]; 0.03162 µM) was 0.914 GR, the GR value ([14]; 0.1 µM) was 0.688 GR and the GR value ([14]; 0.3162 µM) was 0.61 GR. For the same cell line, the GR value ([14]; 1 µM) was 0.6 GR, the GR value ([14]; 3.162 µM) was 0.415 GR and the GR value ([14]; 10 µM) was 0.355 GR. It also gave a GR value ([15]; 0.0001 µM) of 0.996 GR, a GR value ([15]; 0.0003162 µM) of 0.978 GR and a GR value ([15]; 0.001 µM) of 0.907 GR. It also gave a GR value ([15]; 0.003162 µM) of 0.911 GR, a GR value ([15]; 0.01 µM) of 1.07 GR and a GR value ([15]; 0.03162 µM) of 0.896 GR. For the same cell line, the GR value ([15]; 0.1 µM) was 1 GR, the GR value ([15]; 0.3162 µM) was 0.801 GR and the GR value ([15]; 1 µM) was -0.59 GR. The GR value ([16]; 0.0001 µM) was 0.946 GR, the GR value ([16]; 0.0003162 µM) was 1.1 GR and the GR value ([16]; 0.001 µM) was 1.04 GR. It also gave a GR value ([16]; 0.003162 µM) of 0.932 GR, a GR value ([16]; 0.01 µM) of 1.01 GR and a GR value ([16]; 0.03162 µM) of 0.922 GR. For the same cell line, the GR value ([16]; 0.1 µM) was 0.86 GR, the GR value ([16]; 0.3162 µM) was 0.69 GR and the GR value ([16]; 1 µM) was -0.299 GR. The GR value ([17]; 0.0001 µM) was 1.03 GR, the GR value ([17]; 0.0003162 µM) was 0.976 GR and the GR value ([17]; 0.001 µM) was 0.978 GR. For the same cell line, the GR value ([17]; 0.003162 µM) was 0.991 GR, the GR value ([17]; 0.01 µM) was 0.877 GR and the GR value ([17]; 0.03162 µM) was 0.976 GR. For the same cell line, the GR value ([17]; 0.1 µM) was 0.809 GR, the GR value ([17]; 0.3162 µM) was 0.466 GR and the GR value ([17]; 1 µM) was -0.199 GR.
